Results on two compounds are retold here after patent publication US20130023534A1, “PYRAZOLYL-PYRIMIDINES AS KINASE INHIBITORS” (priority 2010, published 2013).

Structures are written as SMILES.

The target of the assay is T1, RIPK2 (Homo sapiens, UniProt O43353).
T1 construct: Full length FLAG His tagged RIPK2 was purified from a Baculovirus expression system; FLAG (N); 6His (N); made in house; host or cells: Spodoptera frugiperda (Sf9) insect cells, baculovirus
Kind of assay: Fluorescent polarization based binding assay at the ATP binding pocket of RIPK2. To be noted: full length FLAG His tagged RIPK2; competition with fluorescently labeled ATP competitive ligand (5 nM); mean of a minimum of 2 experiments; read-out: mean pIC50 (converted). From the text:
A fluorescent polarization based binding assay was developed to quantitate interaction of novel test compounds at the ATP binding pocket of RIPK2, by competition with a fluorescently labeled ATP competitive ligand. Full length FLAG His tagged RIPK2 was purified from a Baculovirus expression system and was used at a final assay concentration of twice the KDapparent. A fluorescent labeled ligand (5-({[2-({[3-({4-[(5-hydroxy-2-methylphenyl)amino]-2-pyrimidinyl}amino)phenyl]carbonyl}amino)ethyl]amino}carbonyl)-2-(6-hydroxy-3-oxo-3H-xanthen-9-yl)benzoic acid, prepared as described below) was used at a final assay concentration of 5 nM. Both the enzyme and ligand were prepared in solutions in 50 mM HEPES pH7.5, 150 mM NaCl, 10 mM MgCl2, 1 mM DTT, and 1 mM CHAPS. Test compounds were prepared in 100% DMSO and 100 nL was dispensed to individual wells of a multiwell plate. Next, 5 ul RIPK2 was added to the test compounds at twice the final assay concentration, and incubated at room temperature for 10 minutes. […] Finally, samples were read on an instrument capable of measuring fluorescent polarization. Test compound inhibition was expressed as percent (%) inhibition of internal assay controls.
For concentration response experiments, normalized data were fit and pIC50s determined using conventional techniques. […]

T1 sequence (O43353 whole entry): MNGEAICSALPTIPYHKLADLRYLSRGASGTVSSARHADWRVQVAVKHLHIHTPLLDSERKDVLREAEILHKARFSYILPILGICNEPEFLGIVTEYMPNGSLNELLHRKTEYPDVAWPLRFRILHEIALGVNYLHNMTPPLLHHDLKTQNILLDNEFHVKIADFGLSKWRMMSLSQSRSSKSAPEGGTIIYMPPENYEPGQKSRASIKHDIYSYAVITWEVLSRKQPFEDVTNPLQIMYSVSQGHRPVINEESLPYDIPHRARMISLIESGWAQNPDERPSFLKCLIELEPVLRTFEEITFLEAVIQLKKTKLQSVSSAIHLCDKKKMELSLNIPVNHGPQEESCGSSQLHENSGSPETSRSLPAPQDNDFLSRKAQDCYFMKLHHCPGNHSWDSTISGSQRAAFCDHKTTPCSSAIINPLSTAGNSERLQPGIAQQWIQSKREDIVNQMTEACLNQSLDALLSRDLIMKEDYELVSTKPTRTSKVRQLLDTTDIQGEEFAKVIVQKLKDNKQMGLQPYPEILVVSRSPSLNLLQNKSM

Turning to `COc1cc(Nc2nccc(Nc3[nH]nc(C)c3C)n2)cc(OC)c1OC` [Example 1, N^4-(3,4-Dimethyl-1H-pyrazol-5-yl)-N^2-[3,4,5-tris(methyloxy)phenyl]-2,4-pyrimidinediamine], the IC50 was 10 nM. To `COc1ccc(-n2nc(C(F)(F)F)cc2Nc2ccnc(Nc3ccc(OC)c(OC)c3)n2)cc1` [Example 21, N^2-[3,4-bis(methyloxy)phenyl]-N^4-[1-[4-(methyloxy)phenyl]-3-(trifluoromethyl)-1H-pyrazol-5-yl]-2,4-pyrimidinediamine] belongs 251 nM.
